Results as given in PubChem BioAssay AID248 (DTP/NCI, 2004).
Inconclusive results and toxic doses are left out. Cut-off read from the data, not from the text of the source: active = T/C of 150% or more; inactive = T/C below 125%.

Test system: L1210 leukemia ip in BDF1 mice, survival T/C
Assay: NCI In Vivo Anticancer Drug Screen. Data for tumor model L1210 Leukemia (intraperitoneal) in B6D2F1 (BDF1) mice
Conditions: endpoint: mean survival time, higher = longer survival
Outline: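 In this screen, tumor-bearing mice given compound are compared to those given vehicle, and their survival values are reported as a treated-to-control quotient.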

[1] = dose: 100.0 mg/kg/injection, schedule: Q01DX001 (ip), vehicle: Klucel (hydroxypropylcellulose) (HPC)
[2] = dose: 100.0 mg/kg/injection, schedule: Q01DX009 (ip), vehicle: Klucel (hydroxypropylcellulose) (HPC)
[3] = dose: 100.0 mg/kg/injection, schedule: Q04DX003 (ip), vehicle: Klucel (hydroxypropylcellulose) (HPC)
[4] = dose: 200.0 mg/kg/injection, schedule: Q01DX001 (ip), vehicle: Klucel (hydroxypropylcellulose) (HPC)
[5] = dose: 200.0 mg/kg/injection, schedule: Q01DX009 (ip), vehicle: Klucel (hydroxypropylcellulose) (HPC)
[6] = dose: 200.0 mg/kg/injection, schedule: Q04DX003 (ip), vehicle: Klucel (hydroxypropylcellulose) (HPC)
[7] = dose: 400.0 mg/kg/injection, schedule: Q01DX001 (ip), vehicle: Klucel (hydroxypropylcellulose) (HPC)
[8] = dose: 400.0 mg/kg/injection, schedule: Q01DX009 (ip), vehicle: Klucel (hydroxypropylcellulose) (HPC)
[9] = dose: 400.0 mg/kg/injection, schedule: Q04DX003 (ip), vehicle: Klucel (hydroxypropylcellulose) (HPC)
[10] = dose: 100.0 mg/kg/injection, schedule: Q01DX001 (ip), vehicle: carboxymethylcellulose (CMC)
[11] = dose: 200.0 mg/kg/injection, schedule: Q01DX001 (ip), vehicle: carboxymethylcellulose (CMC)
[12] = dose: 400.0 mg/kg/injection, schedule: Q01DX001 (ip), vehicle: carboxymethylcellulose (CMC)
[13] = dose: 100.0 mg/kg/injection, schedule: Q01DX009 (ip), vehicle: saline with Tween-80
[14] = dose: 100.0 mg/kg/injection, schedule: Q04DX003 (ip), vehicle: saline with Tween-80
[15] = dose: 200.0 mg/kg/injection, schedule: Q01DX009 (ip), vehicle: saline with Tween-80
[16] = dose: 200.0 mg/kg/injection, schedule: Q04DX003 (ip), vehicle: saline with Tween-80
[17] = dose: 400.0 mg/kg/injection, schedule: Q04DX003 (ip), vehicle: saline with Tween-80
[18] = dose: 100.0 mg/kg/injection, schedule: Q01DX001 (ip), vehicle: saline with Tween-80
[19] = dose: 100.0 mg/kg/injection, schedule: Q04DX002 (ip), vehicle: saline with Tween-80
[20] = dose: 200.0 mg/kg/injection, schedule: Q04DX002 (ip), vehicle: saline with Tween-80
[21] = dose: 400.0 mg/kg/injection, schedule: Q04DX002 (ip), vehicle: saline with Tween-80
[22] = dose: 400.0 mg/kg/injection, schedule: Q01DX009 (ip), vehicle: saline with Tween-80
[23] = dose: 100.0 mg/kg/injection, schedule: Q01DX001 (ip), vehicle: saline
[24] = dose: 200.0 mg/kg/injection, schedule: Q01DX001 (ip), vehicle: saline
[25] = dose: 400.0 mg/kg/injection, schedule: Q01DX001 (ip), vehicle: saline

Measured: T/C

O=S1(=O)CC(c2ccc(Cl)cc2)Nc2ccccc21 (stereo not given)
inactive: [1] 87 % of control | [2] 90 % of control | [3] 103 % of control | [4] 93 % of control | [5] 90 % of control | [6] 100 % of control | [7] 93 % of control | [8] 93 % of control | [9] 92 % of control

CC(=O)OC1CC2CC(C1)C(C#N)C(=O)NC(=O)C2C#N (stereo not given)
inactive: [10] 102 % of control | [11] 96 % of control | [12] 92 % of control

O=C1NOCC1N=Cc1ccccc1O (stereo not given)
inactive: [3] 102 % of control | [6] 98 % of control | [9] 101 % of control

CC(=O)c1cccc2c(C(C)=O)cccc12
inactive: dose: 50.0 mg/kg/injection, schedule: Q01DX001 (ip), vehicle: carboxymethylcellulose (CMC) 105 % of control | [10] 103 % of control | [11] 111 % of control | [12] 103 % of control

CCCCCCCCCNC(=O)Nc1cccc(Cl)c1C
inactive: [13] 86 % of control | [14] 90 % of control | [15] 87 % of control | [16] 90 % of control | [17] 90 % of control

Cc1nc(N)cc(Cl)n1
inactive: [3] 101 % of control | [6] 103 % of control | [9] 90 % of control

COC(=S)Nc1cccc(OC(=O)NC(C)C)c1
inactive: [18] 97 % of control | dose: 200.0 mg/kg/injection, schedule: Q01DX001 (ip), vehicle: saline with Tween-80 95 % of control | dose: 400.0 mg/kg/injection, schedule: Q01DX001 (ip), vehicle: saline with Tween-80 100 % of control

N#CCCCC1(CCCC#N)OCCO1
inactive: dose: 25.0 mg/kg/injection, schedule: Q01DX009 (ip), vehicle: saline 94 % of control | dose: 50.0 mg/kg/injection, schedule: Q01DX009 (ip), vehicle: saline 100 % of control

Cn1c2ccccc2c2nn3cnnc3nc21
inactive: [19] 108 % of control | [20] 120 % of control

COc1ccc(/C=C2/N=C(C)OC2=O)cc1
inactive: [1] 92 % of control | [4] 98 % of control | [7] 102 % of control

CC(C)(C1c2ccccc2C(=O)c2ccccc21)[N+](=O)[O-]
inactive: [2] 101 % of control | [3] 98 % of control | [5] 94 % of control | [6] 101 % of control | [8] 99 % of control | [9] 101 % of control

C1CCC2(CC1)CCCO2
inactive: dose: 50.0 mg/kg/injection, schedule: Q04DX002 (ip), vehicle: saline with Tween-80 87 % of control | [19] 98 % of control | [20] 106 % of control | [21] 102 % of control

OCCSC(SCCO)=C(SCCO)SCCO
inactive: [2] 105 % of control | [3] 97 % of control | [5] 102 % of control | [6] 92 % of control | [8] 96 % of control | [9] 94 % of control

ClC(Cl)(Cl)c1ccc(C(SCc2ccccc2)SCc2ccccc2)cc1
inactive: [14] 86 % of control | [16] 89 % of control | [17] 86 % of control

COc1ccc2c(c1)C1(C)CCCC(C)(C(N)=O)C1CC2 (stereo not given)
inactive: [10] 101 % of control | [11] 93 % of control | [12] 98 % of control

Cc1csc(NC(=O)C2C3CCC(O3)C2C(=O)O)n1 (stereo not given)
inactive: dose: 5.0 mg/kg/injection, schedule: Q01DX001 (ip), vehicle: carboxymethylcellulose (CMC) 95 % of control | dose: 10.0 mg/kg/injection, schedule: Q01DX001 (ip), vehicle: carboxymethylcellulose (CMC) 101 % of control

Cc1nc2c([N+](=O)[O-])cccn2n1
inactive: dose: 100.0 mg/kg/injection, schedule: Q01DX001 (ip), vehicle: acetone 98 % of control

COc1ccc(NC(=O)Oc2ccc(OC)cc2)cc1
inactive: [2] 103 % of control | [3] 97 % of control | [5] 95 % of control | [6] 89 % of control | [8] 89 % of control | [9] 91 % of control

NC(=S)NNC(=O)CN1C(=O)c2ccccc2C1=O
inactive: [1] 102 % of control | [4] 105 % of control | [7] 102 % of control

Cc1cc(C)c(N(CC(=O)O)S(=O)(=O)c2ccccc2)c(C)c1F
inactive: [1] 100 % of control | [4] 94 % of control | [7] 89 % of control

Cc1cccc(Cl)c1OCC(N)=O
inactive: [19] 111 % of control | [20] 103 % of control | [21] 111 % of control

O=C1NC(=O)C(c2ccccc2Cl)N1 (stereo not given)
inactive: [1] 109 % of control | [3] 102 % of control | [4] 118 % of control | [6] 100 % of control | [7] 103 % of control | [9] 98 % of control

COc1cc2c(cc1OC)C1CCN3C(=O)CCC3N1CC2 (stereo not given)
inactive: dose: 50.0 mg/kg/injection, schedule: Q01DX009 (ip), vehicle: Klucel (hydroxypropylcellulose) (HPC) 101 % of control | [2] 101 % of control | [13] 95 % of control | [5] 104 % of control | [15] 98 % of control | [22] 98 % of control

O=C1C=C2C=CCCC2CC1 (stereo not given)
inactive: dose: 75.0 mg/kg/injection, schedule: Q01DX001 (ip), vehicle: other 104 % of control | dose: 150.0 mg/kg/injection, schedule: Q01DX001 (ip), vehicle: other 98 % of control | dose: 300.0 mg/kg/injection, schedule: Q01DX001 (ip), vehicle: other 114 % of control

O=c1ccn(Cc2ccccc2)c(=S)[nH]1
inactive: dose: 50.0 mg/kg/injection, schedule: Q01DX001 (ip), vehicle: saline 97 % of control | [23] 94 % of control | [24] 97 % of control | [25] 100 % of control

COc1ccc(N=Nc2nccs2)c(O)c1
inactive: dose: 50.0 mg/kg/injection, schedule: Q01DX009 (ip), vehicle: saline with Tween-80 102 % of control | [13] 98 % of control | [15] 109 % of control

Nc1cc(Nc2ccc(CCO)cc2)nc(N)n1
inactive: dose: 200.0 mg/kg/injection, schedule: Q01DX Z (ip), vehicle: methylcellulose (MC) 86 % of control

C[Si]1(C)CCCSC1
inactive: [23] 93 % of control | [24] 96 % of control | [25] 97 % of control

CCOC(=O)c1nc(N)nc(N)c1-c1ccc(Cl)cc1
inactive: dose: 25.0 mg/kg/injection, schedule: Q01DX001 (ip), vehicle: saline with Tween-80 98 % of control | dose: 50.0 mg/kg/injection, schedule: Q01DX001 (ip), vehicle: saline with Tween-80 104 % of control | [18] 102 % of control

CCCCCC(C)(O)CCCCC
inactive: [10] 101 % of control | [11] 97 % of control | [12] 97 % of control

COC(OC)c1nc(NC(C)=O)[nH]c(=O)c1Cc1ccc(N)cc1
inactive: [13] 96 % of control | [14] 94 % of control | [15] 89 % of control | [16] 96 % of control | [22] 97 % of control | [17] 110 % of control
